# Reference: patent US11788060B2, “Small molecule compound composition that efficiently induces differentiation of human pluripotent stem cells into myocardial cells” (Shanghai Institute of Nutrition and Health, Chinese Academy …, priority 2016, dated 2023)
# Key:
# [1] = tested on: human embryonic stem cells; assay: Cell count of stem cells in high-density monolayer culture; format: cell-based; details: DMSO, CHIR or CHIR+rapamycin; 5×10^4/cm^2, days 1-4
# Description: The correlated detection was performed under three treatment conditions of DMSO, CHIR and CHIR+rapamycin. […] (Due to the replacement of the culture medium on the 4th day, stem cells underwent massive death because of the rapid changes in the environment).
# [2] = tested on: stem cells; assay: Cell cycle analysis and BrdU cell proliferation assay; format: cell-based, human; details: compared with DMSO control group
# Description: After 10 μM BrdU (Sigma-Aldrich) was added to incubate the cells for 1 hour, cells were harvested, digested and centrifuged at 300 g for 5 minutes. Cells were collected, washed once with PBS containing 0.5% BSA (wash solution) at room temperature, and resuspended in 1 ml of PBS. 3 ml of pre-cooled ethanol was added with shaking and settled for 20 minutes at room temperature. Centrifuge to remove the supernatant, wash once with PBS, centrifuge to remove supernatant, loosen the pellet by flicking a few times, add 1 ml of the freshly prepared denaturation solution (2M HCl) and mix. Allow to stand at room temperature for 20 minutes; add 1 ml of 0.1 M sodium borate (pH 8.5) to neutralize for 2 minutes at room temperature; rinse once and add anti-BrdU antibody (BD Biosciences 1:50 dilution) prepared with PBS containing 0.5% Tween 20/0.5% BSA (Sigma-Aldrich); aspirate primary antibody, rinse with 1 ml wash solution, add Alexa-488-anti-mouse (1:1000), incubate for 20 minutes at room temperature; aspirate secondary antibody, rinse again, resuspend with 0.5 ml 10 μg/ml PI solution and incubate for 30 minutes at room temperature. The supernatant was removed by centrifugation, rinsed again with a wash solution, and tested with flow cytometry.
# [3] = tested on: Parp; assay: Western blot of Parp cleavage; format: cell-based, human; details: first 4 days of treatment
# Excerpt: Wherein figure (A and B) show the influence of different small molecules on proliferation rate of the stem cells by means of cell cycle analysis and BrdU proliferation detection. (C) Western blot analysis of intracellular Parp protein cleavage to estimate cell death under different treatment. (D) Influence of rapamycin on activity of apoptosis executive caspase 3/7 determined by luciferase reporter system. (E) Detection of the proportion of cell death treated with or without rapamycin by Annexin V/PI staining at the end of the culture on day 3 and day 4. […] All the results are statistically analyzed for at least 3 independently repeated experiments (* P<0.05, ** P<0.01).
# Caspase 3, 6, and 7 are the execution proteins of apoptosis and are mainly responsible for the cleavage of structural proteins and regulatory proteins in the nucleus and cytoplasm.
# [4] = tested on: stem cells; assay: Annexin V/PI staining of apoptosis and cell death; format: cell-based, human
# Description: Annexin V/PI staining: Annexin V/PI kit (Roche) was used in this experiment. The cells were cultured in 24-well plates. At the specified time, the cells were digested into single cells with accutase and washed once with PBS. The cells were incubated with staining solution containing Annexin V and PI for 10 minutes. Care was taken to avoid light. 5 volumes of incubation solution was added to dilute thereby stopping the reaction and tested by flow cytometry immediately, the excitation lights were 488 nm and 518 nm, the emission lights were 488-540 nm and 617 nm.
compound,measurement,setting,value
Cc1c[nH]c(-c2cnc(NCCNc3ccc(C#N)cn3)nc2-c2ccc(Cl)cc2Cl)n1 [CHIR99021],stem cell number,[1],accelerated the increase in stem cell number in the first 3 days
same,proportion of cells in S phase and proportion of BrdU positive cells,[2],slightly increased
same,Parp cleavage band,[3],gradually increased
same,proportion of cell death,"[4]; 4th day, 24 hours after replacing with RPMI/B27 differentiation medium",nearly half
same,Annexin V-positive apoptotic cells,[4]; end of culture on the third day,25.8%
